Some results are limits rather than exact numbers.

For the assay, the target named is T1, human PTHR1 receptor (Homo sapiens, UniProt Q03431).
T1 construct: purchased Eurofins HTS030M
T1 sequence (Q03431 27-593): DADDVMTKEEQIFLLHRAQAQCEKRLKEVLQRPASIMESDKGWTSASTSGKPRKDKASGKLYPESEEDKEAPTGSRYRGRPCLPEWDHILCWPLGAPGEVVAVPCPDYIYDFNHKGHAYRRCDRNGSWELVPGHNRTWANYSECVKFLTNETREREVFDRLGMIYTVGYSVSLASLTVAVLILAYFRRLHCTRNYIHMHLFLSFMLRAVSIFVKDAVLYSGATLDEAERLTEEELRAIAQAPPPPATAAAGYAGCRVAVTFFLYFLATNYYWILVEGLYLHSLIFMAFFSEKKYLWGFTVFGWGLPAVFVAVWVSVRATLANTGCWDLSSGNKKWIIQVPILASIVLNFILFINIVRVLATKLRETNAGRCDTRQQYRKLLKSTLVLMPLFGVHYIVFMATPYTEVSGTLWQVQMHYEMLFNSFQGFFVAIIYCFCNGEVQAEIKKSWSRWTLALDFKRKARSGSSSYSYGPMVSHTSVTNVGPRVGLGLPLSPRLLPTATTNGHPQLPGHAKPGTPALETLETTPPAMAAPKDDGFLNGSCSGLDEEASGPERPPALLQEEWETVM
The assay can be described thus: Competitive antagonist binding assay for hPTH-R1 (radioactive competition binding, SPA beads). The note with it: human PTHR1 membranes, [125I]-[Nle8,18,Tyr34]-PTH(1-34) 0.2 nM, 90 minutes at room temperature; read-out: hPTHR1 Ki. The method, boiled down: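 Displacement of 0.2 nM radioiodinated [Nle8,18,Tyr34]-PTH(1-34) from membrane-bound human PTHR1 measured by scintillation proximity after 90 min at room temperature. Compounds typically 0-10,000 nM final, pH 7.4 HEPES/Mg/Ca buffer with BSA and detergent. Ki calculated from competition data.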
As a reminder, the Ki is a dissociation constant, usually derived from enzyme kinetics or from competition with a known ligand. In the case of `CCN1C(=O)N(c2c(F)cc(NCCNCC(C)(C)O)cc2F)c2cc(C#N)ccc2-c2cc(Cl)cnc21` [1-138, 4-chloro-10-[2,6-difluoro-4-({2-[(2-hydroxy-2-methylpropyl)amino]ethyl}amino)phenyl]-8-ethyl-9-oxo-6,8,10-triazatricyclo[9.4.0.0^2,7]pentadeca-1(11),2(7),3,5,12,14-hexaene-13-carbonitrile], the Ki was less than 100 nM. In the case of `CCC(CO)NCCNc1cc(F)c(N2C(=O)N(CC)c3ncc(Cl)cc3-c3ccc(C#N)cc32)c(F)c1` (stereo not drawn) [1-139, 4-chloro-10-[2,6-difluoro-4-({2-[(1-hydroxybutan-2-yl)amino]ethyl}amino)phenyl]-8-ethyl-9-oxo-6,8,10-triazatricyclo[9.4.0.0^2,7]pentadeca-1(11),2(7),3,5,12,14-hexaene-13-carbonitrile], the Ki is less than 100 nM. On to `CCN1C(=O)N(c2c(F)cc(NCCNCCNC(N)=O)cc2F)c2cc(C#N)ccc2-c2cc(Cl)cnc21` [1-140, [2-({2-[(4-{4-chloro-13-cyano-8-ethyl-9-oxo-6,8,10-triazatricyclo[9.4.0.0^2,7]pentadeca-1(11),2(7),3,5,12,14-hexaen-10-yl}-3,5-difluorophenyl)amino]ethyl}amino)ethyl]urea], for which the Ki is less than 100 nM. Then `CCN1C(=O)N(c2c(F)cc(NCCNCCS(=O)(=O)O)cc2F)c2cc(C#N)ccc2-c2cc(Cl)cnc21` [1-141, 2-({2-[(4-{4-chloro-13-cyano-8-ethyl-9-oxo-6,8,10-triazatricyclo[9.4.0.0^2,7]pentadeca-1(11),2(7),3,5,12,14-hexaen-10-yl}-3,5-difluorophenyl)amino]ethyl}amino)ethane-1-sulfonic acid], with less than 100 nM; and `CCN1C(=O)N(c2c(F)cc(NCCNCCO)cc2F)c2ccccc2-c2cc(Cl)cnc21` [1-142, 4-chloro-10-[2,6-difluoro-4-({2-[(2-hydroxyethyl)amino]ethyl}amino)phenyl]-8-ethyl-6,8,10-triazatricyclo[9.4.0.0^2,7]pentadeca-1(11),2(7),3,5,12,14-hexaen-9-one], with less than 100 nM. Under `CCN1C(=O)N(c2c(F)cc(N3CCCNCC3)cc2F)c2cc(C#N)ccc2-c2cc(Cl)cnc21` [1-143, 4-chloro-10-[4-(1,4-diazepan-1-yl)-2,6-difluorophenyl]-8-ethyl-9-oxo-6,8,10-triazatricyclo[9.4.0.0^2,7]pentadeca-1(11),2(7),3,5,12,14-hexaene-13-carbonitrile] stands less than 100 nM. As for `CCN1C(=O)N(c2c(F)cc(N3CCN(CCO)CC3)cc2F)c2cc(C#N)ccc2-c2cc(Cl)cnc21` [1-144, 4-chloro-10-{2,6-difluoro-4-[4-(2-hydroxyethyl)piperazin-1-yl]phenyl}-8-ethyl-9-oxo-6,8,10-triazatricyclo[9.4.0.0^2,7]pentadeca-1(11),2(7),3,5,12,14-hexaene-13-carbonitrile], the Ki is less than 100 nM. With `CCN1C(=O)N(c2c(F)cc(NCC3CNC3)cc2F)c2cc(C#N)ccc2-c2cc(Cl)cnc21` [1-145, 10-(4-{[(azetidin-3-yl)methyl]amino}-2,6-difluorophenyl)-4-chloro-8-ethyl-9-oxo-6,8,10-triazatricyclo[9.4.0.0^2,7]pentadeca-1(11),2(7),3,5,12,14-hexaene-13-carbonitrile], the Ki is less than 100 nM. `CCN1C(=O)N(c2c(F)cc(N(C)CCNC)cc2F)c2cc(C#N)ccc2-c2cc(Cl)cnc21` [1-146, 4-chloro-10-(2,6-difluoro-4-{methyl[2-(methylamino)ethyl]amino}phenyl)-8-ethyl-9-oxo-6,8,10-triazatricyclo[9.4.0.0^2,7]pentadeca-1(11),2(7),3,5,12,14-hexaene-13-carbonitrile]: the Ki was less than 100 nM. Consider `CCN1C(=O)N(c2c(F)cc(NC[C@H]3COCCN3)cc2F)c2cc(C#N)ccc2-c2cc(Cl)cnc21` [1-147, 4-chloro-10-[2,6-difluoro-4-({[(3S)-morpholin-3-yl]methyl}amino)phenyl]-8-ethyl-9-oxo-6,8,10-triazatricyclo[9.4.0.0^2,7]pentadeca-1(11),2(7),3,5,12,14-hexaene-13-carbonitrile], for which the Ki is less than 100 nM. Then `CCN1C(=O)N(c2c(F)cc(NCCN3CCOCC3)cc2F)c2cc(C#N)ccc2-c2cc(Cl)cnc21` [1-148, 4-chloro-10-(2,6-difluoro-4-{[2-(morpholin-4-yl)ethyl]amino}phenyl)-8-ethyl-9-oxo-6,8,10-triazatricyclo[9.4.0.0^2,7]pentadeca-1(11),2(7),3,5,12,14-hexaene-13-carbonitrile], with 100 to 1000 nM; and `CCN1C(=O)N(c2c(F)cc(NCCNC(C)CO)cc2F)c2cc(C#N)ccc2-c2cc(Cl)cnc21` (stereo not drawn) [1-149, 4-chloro-10-[2,6-difluoro-4-({2-[(1-hydroxypropan-2-yl)amino]ethyl}amino)phenyl]-8-ethyl-9-oxo-6,8,10-triazatricyclo[9.4.0.0^2,7]pentadeca-1(11),2(7),3,5,12,14-hexaene-13-carbonitrile], with less than 100 nM; and `CCN1C(=O)N(c2c(F)cc(NCCNCCNS(C)(=O)=O)cc2F)c2cc(C#N)ccc2-c2cc(Cl)cnc21` [1-150, N-[2-({2-[(4-{4-chloro-13-cyano-8-ethyl-9-oxo-6,8,10-triazatricyclo[9.4.0.0^2,7]pentadeca-1(11),2(7),3,5,12,14-hexaen-10-yl}-3,5-difluorophenyl)amino]ethyl}amino)ethyl]methanesulfonamide], with less than 100 nM. In the case of `CCN1C(=O)N(c2c(F)cc(NC[C@@H]3COCCN3)cc2F)c2cc(C#N)ccc2-c2cc(Cl)cnc21` [1-151, 4-chloro-10-[2,6-difluoro-4-({[(3R)-morpholin-3-yl]methyl}amino)phenyl]-8-ethyl-9-oxo-6,8,10-triazatricyclo[9.4.0.0^2,7]pentadeca-1(11),2(7),3,5,12,14-hexaene-13-carbonitrile], the Ki was less than 100 nM. For the compound `CCN1C(=O)N(c2c(F)cc(N3CCN[C@H](CO)C3)cc2F)c2cc(C#N)ccc2-c2cc(Cl)cnc21` [1-152, 4-chloro-10-{2,6-difluoro-4-[(3S)-3-(hydroxymethyl)piperazin-1-yl]phenyl}-8-ethyl-9-oxo-6,8,10-triazatricyclo[9.4.0.0^2,7]pentadeca-1(11),2(7),3,5,12,14-hexaene-13-carbonitrile], the Ki fell in the range of 100 to 1000 nM.

`CCN1C(=O)N(c2c(F)cc(N3CCN[C@@H](CO)C3)cc2F)c2cc(C#N)ccc2-c2cc(Cl)cnc21` [1-153, 4-chloro-10-{2,6-difluoro-4-[(3R)-3-(hydroxymethyl)piperazin-1-yl]phenyl}-8-ethyl-9-oxo-6,8,10-triazatricyclo[9.4.0.0^2,7]pentadeca-1(11),2(7),3,5,12,14-hexaene-13-carbonitrile]: the Ki is less than 100 nM. Take `CCN1C(=O)N(c2c(F)cc(NCCNCCC#N)cc2F)c2cc(C#N)ccc2-c2cc(Cl)cnc21` [1-154, 4-chloro-10-[4-({2-[(2-cyanoethyl)amino]ethyl}amino)-2,6-difluorophenyl]-8-ethyl-9-oxo-6,8,10-triazatricyclo[9.4.0.0^2,7]pentadeca-1(11),2(7),3,5,12,14-hexaene-13-carbonitrile]: the Ki is less than 100 nM. For `CCN1C(=O)N(c2c(F)cc(NCCN3CCNCC3)cc2F)c2cc(C#N)ccc2-c2cc(Cl)cnc21` [1-155, 4-chloro-10-(2,6-difluoro-4-{[2-(piperazin-1-yl)ethyl]amino}phenyl)-8-ethyl-9-oxo-6,8,10-triazatricyclo[9.4.0.0^2,7]pentadeca-1(11),2(7),3,5,12,14-hexaene-13-carbonitrile], the Ki was less than 100 nM. Then `CCN1C(=O)N(c2c(F)cc(NCCNCC(O)CO)cc2F)c2cc(C#N)ccc2-c2cc(Cl)cnc21` (stereo not drawn) [1-156, 4-chloro-10-[4-({2-[(2,3-dihydroxypropyl)amino]ethyl}amino)-2,6-difluorophenyl]-8-ethyl-9-oxo-6,8,10-triazatricyclo[9.4.0.0^2,7]pentadeca-1(11),2(7),3,5,12,14-hexaene-13-carbonitrile], with less than 100 nM. On to `CCN1C(=O)N(c2c(F)cc(NCCNC(CO)CO)cc2F)c2cc(C#N)ccc2-c2cc(Cl)cnc21` [1-157, 4-chloro-10-[4-({2-[(1,3-dihydroxypropan-2-yl)amino]ethyl}amino)-2,6-difluorophenyl]-8-ethyl-9-oxo-6,8,10-triazatricyclo[9.4.0.0^2,7]pentadeca-1(11),2(7),3,5,12,14-hexaene-13-carbonitrile], for which the Ki is less than 100 nM. Turning to `CCN1C(=O)N(c2c(F)cc(NCC3(CO)CNC3)cc2F)c2cc(C#N)ccc2-c2cc(Cl)cnc21` [1-158, 4-chloro-10-[2,6-difluoro-4-({[3-(hydroxymethyl)azetidin-3-yl]methyl}amino)phenyl]-8-ethyl-9-oxo-6,8,10-triazatricyclo[9.4.0.0^2,7]pentadeca-1(11),2(7),3,5,12,14-hexaene-13-carbonitrile], the Ki was 100 to 1000 nM.

(Values after US20230159532A1, “PARATHYROID HORMONE (PTH) RECEPTOR ANTAGONISTS AND USES THEREOF” (Crinetics Pharmaceuticals, Inc., priority 2021, published 2023).)
